The values below come from US20230263918A1, “ANTIVIRAL METHODS AND COMPOSITIONS” (priority 2020, published 2023).

The test system of one data set is E. coli. Kind of data set: Light-activated killing of bacteria (E. coli). Type of data set: cell-based. Conditions: for light-activated killing of bacteria: E. coli; for anti-bacterial activity using cool white light: LuzChem "cool white" light. The text has this: No killing of bacteria in the dark has yet been observed.
Compound E was applied to a wet wipe surface and also to the surface of a filter for filtration of air or water.

Another data set relates to mammal models. Conditions: in vivo.

For the molecule `Cn1cc[n+](CCCOc2ccc(C#Cc3ccc(C#Cc4ccc(OCCC[n+]5ccn(C)c5)cc4)cc3)cc2)c1` [Compound D], in the data set on E. coli, the “light-activated killing of bacteria” value is on record as “excellent” and the “anti-bacterial activity using cool white light” value was “excellent anti-bacterial activity”. Also, the “relative reactivity in bacterial killing” value with E. coli (light-activated) is on record as “more reactive than Compound E”.

Take `Cn1cc[n+](CCCCc2ccc(C#Cc3ccc(C#Cc4ccc(OCCC[n+]5ccn(C)c5)cc4)s3)cc2)c1` [Compound E]: the “toxicity against mammal models” value in the data set with mammal models was “no toxicity”. In the data set with E. coli, the “light-activated killing of bacteria” value is recorded as “excellent” and the “anti-bacterial activity using cool white light” value was “excellent anti-bacterial activity”. Also, the “light-activated killing on surfaces” value in the data set with E. coli (applied to wet wipe surface and filter surface for air or water) was “strong light-activated killing”. Moreover, the “killing of bacteria in the dark” value with E. coli (dark) is listed as “No killing”. Also, in the data set on E. coli (wet wipe / filter surface immersed in suspension of E. Coli), the “activity when surface immersed in E. Coli suspension” value was “activity was retained”.
